Test results from patent publication US11564912B2, “Methods for treating irritable bowel syndrome (IBS)” (Salix Pharmaceuticals, Inc., priority 2008, dated 2023).

How the values were obtained:
[1] = oral administration; Descombe et al. 1994; cited from earlier work
subjects with IBS = assay: Study 1 of rifaximin 550 mg TID for 14 days, analysis after 3 months; assay type: in vivo, human
Description: (§1) A measure of efficacy is based on subjects' answers to the Weekly Subject Global Assessment (SGA) questions over the study duration in relation to their IBS symptoms.

[2] = tested on: patients with nonconstipation irritable bowel syndrome (non-C IBS); assay: Trial of rifaximin 550 mg TID for 14 days with 10-week follow-up (Example 5; Study 2 of Example 6); assay type: in vivo, human
[3] = tested on: patients with nonconstipation irritable bowel syndrome (non-C IBS); assay: as above; assay type: in vivo, human; remark: listed apart in the source
Description: A measure of efficacy is based on subjects' answers to the Weekly Subject Global Assessment (SGA) questions over the 4 week study duration in relation to their IBS symptoms. […] Another measure of efficacy is based on subjects' answers to the Weekly Subject Global Assessment (SGA) question over the 4 week study duration in relation to their IBS symptom of bloating. The SGA question is asked weekly as follows: “In the past 7 days, have you had adequate relief of your IBS symptom of bloating?” (Yes/No). […] Other measures of efficacy include the changes in dIBS symptoms from baseline to each week of the 4 weeks in the study (e.g., abdominal pain and discomfort, bloating, number of stools per day, stool consistency, urgency with loose or watery stools).
The primary efficacy endpoint of the study was the proportion of subjects who achieve adequate relief of IBS symptoms for at least 2 weeks during 10 the first 4 weeks of the 10-week follow-up phase.
Two measures of efficacy were assessed.
Subjects were questioned on the relief of overall IBS symptoms and bloating. […] The analyses defined success as a “yes” response to questions regarding adequate relief.
Assessment (SGA) questions over the 4 week study duration in relation to their IBS symptoms. […] Another measure of efficacy is based on subjects' answers to the Weekly Subject Global Assessment (SGA) question over the 4 week study duration in relation to their IBS symptom of bloating. The SGA question is asked weekly as follows: “In the past 7 days, have you had adequate relief of your IBS symptom of bloating'?” (Yes/No).
All subpopulations in the study responded to therapy. Baseline severity was determined during screening for Abdominal Pain/Discomfort and Bloating, and the number, type (normal, hard, loose) and urgency of bowel movements. Duration of effect was assessed in a ten week follow-up period.
as §1

[4] = at least 2 out of 4 weeks adequate relief during weeks 3 through 6 (weekly question)
[5] = Age Group: <65, Rifaximin 550 mg TID (N = 281)
[6] = Age Group: >=65, Rifaximin 550 mg TID
[7] = Gender: Female, Rifaximin 550 mg TID (N = 226)
[8] = Gender: Male, Rifaximin 550 mg TID (N = 85)
[9] = IBS Subtype: Alternating-predominant, Rifaximin 550 mg TID
[10] = IBS Subtype: Diarrhoea-predominant, Rifaximin 550 mg TID
[11] = Population: ITT, Rifaximin 550 mg TID (N = 315)
[12] = Population: PP, Rifaximin 550 mg TID (N = 311)
[13] = Population: PP, Rifaximin 550 mg TID (N = 311), Weeks 3 through 6

## (2S,16Z,18E,20S,21S,22R, 23R,24R,25S,26S,27S,28E)-5,6,21,23,25 Pentahydroxy-27-methoxy -2,4,11,16,20,22,24,26-octamethyl-2,7-(epoxypentadeca-(1,11,13)trienimino)benzofuro (4,5-e) pyrido(1,2,-a) benzimidazole-1,15(2H)-dione,25-acetate [Rifaximin]
[1]
  Systemic absorption: negligible
Subjects with IBS; <2 for at least 50% of days in a week for at least 2 weeks during PEP
  Daily abdominal pain <2, responders: 40%
Subjects with IBS; [4]
  Global IBS symptoms, responders: 41%
  IBS symptom of Bloating, responders: 40%
Subjects with IBS; at least 2 weeks during PEP
  Abdominal Pain reduction of 2 point in mean, responders: 26%
  Abdominal Pain reduction of 2 point in median, responders: 37%
  Abdominal Pain reduction of 3 point in mean, responders: 6% vs 7%
  Abdominal Pain reduction of 3 point in median, responders: 22%
  Overall reduction of mean weekly abdominal pain by >=25%, responders: 56%
  Overall reduction of mean weekly abdominal pain by >=50%, responders: 36%
  Overall reduction of mean weekly abdominal pain by >=75%, responders: 14%
  Overall reduction of median weekly abdominal pain by >=25%, responders: 63%
  Overall reduction of median weekly abdominal pain by >=50%, responders: 44%
  Overall reduction of median weekly abdominal pain by >=75%, responders: 23%
Subjects with IBS; weekly mean vs baseline for at least 2 weeks during PEP
  Abdominal pain reduction of 1 point in mean, responders: 52%
Subjects with IBS; weekly median vs baseline for at least 2 weeks during PEP
  Abdominal pain reduction of 1 point in median, responders: 63%
[2]; 550 mg rifaximin TID
  Subjects with skin or subcutaneous tissue disorders: 1.3%
[2]; Rifaximin 550 mg TID, randomized subjects (316)
  Early discontinuation of study, primary reason Adverse Event/Serious Adverse Event: 0 n (%)
[3]; 550 mg TID for 2 weeks
  Adequate relief of IBS related symptoms (SGA) and IBS-related bloating (IBS-B): statistically significant relief
[3]; [5]
  Adequate Relief of IBS symptom of Bloating: Failure: 171 (60.9%) N (%)
  Adequate Relief of IBS symptom of Bloating: Success: 110 (39.1%) N (%)
  Adequate Relief of IBS symptoms: Failure: 171 (60.9%) N (%)
  Adequate Relief of IBS symptoms: Success: 110 (39.1%) N (%)
[3]; [6]
  Adequate Relief of IBS symptom of Bloating: Failure: 16 (53.3%) N (%)
  Adequate Relief of IBS symptom of Bloating: Success: 14 (46.7%) N (%)
  Adequate Relief of IBS symptoms: Failure: 16 (53.3%) N (%)
  Adequate Relief of IBS symptoms: Success: 14 (46.7%) N (%)
[3]; [7]
  Adequate Relief of IBS symptom of Bloating: Failure: 128 (56.6%) N (%)
  Adequate Relief of IBS symptom of Bloating: Success: 98 (43.4%) N (%)
  Adequate Relief of IBS symptoms: Failure: 130 (57.5%) N (%)
  Adequate Relief of IBS symptoms: Success: 96 (42.5%) N (%)
[3]; [8]
  Adequate Relief of IBS symptom of Bloating: Failure: 59 (69.4%) N (%)
  Adequate Relief of IBS symptom of Bloating: Success: 26 (30.6%) N (%)
  Adequate Relief of IBS symptoms: Failure: 57 (67.1%) N (%)
  Adequate Relief of IBS symptoms: Success: 28 (32.9%) N (%)
[3]; [9]
  Adequate Relief of IBS symptom of Bloating: Failure: 19 (55.9%) N (%)
  Adequate Relief of IBS symptom of Bloating: Success: 15 (44.1%) N (%)
  Adequate Relief of IBS symptoms: Failure: 21 (61.8%) N (%)
  Adequate Relief of IBS symptoms: Success: 13 (38.2%) N (%)
[3]; [10]
  Adequate Relief of IBS symptom of Bloating: Failure: 168 (60.6%) N (%)
  Adequate Relief of IBS symptom of Bloating: Success: 109 (39.4%) N (%)
  Adequate Relief of IBS symptoms: Failure: 166 (59.9%) N (%)
  Adequate Relief of IBS symptoms: Success: 111 (40.1%) N (%)
[3]; [11]
  Adequate Relief of IBS symptom of Bloating Based on Daily Measures: Failure: 182 (57.8%) N (%)
  Adequate Relief of IBS symptom of Bloating Based on Daily Measures: Success: 133 (42.2%) N (%)
  Adequate Relief of IBS symptoms Based on Daily Measures: Failure: 200 (63.5%) N (%)
  Adequate Relief of IBS symptoms Based on Daily Measures: Success: 115 (36.5%) N (%)
[3]; [12]
  Adequate Relief of IBS symptom of Bloating Based on Daily Measures: Failure: 180 (57.9%) N (%)
  Adequate Relief of IBS symptom of Bloating Based on Daily Measures: Success: 131 (42.1%) N (%)
  Adequate Relief of IBS symptoms Based on Daily Measures: Failure: 196 (63.0%) N (%)
  Adequate Relief of IBS symptoms Based on Daily Measures: Success: 115 (37.0%) N (%)
[3]; [13]
  Adequate Relief of IBS symptom of Bloating: Failure: 187 (60.1%) N (%)
  Adequate Relief of IBS symptom of Bloating: Success: 124 (39.9%) N (%)
  Adequate Relief of IBS symptoms: Failure: 187 (60.1%) N (%)
  Adequate Relief of IBS symptoms: Success: 124 (39.9%) N (%)
[3]; Race: Non-White, Rifaximin 550 mg TID (N = 31)
  Adequate Relief of IBS symptom of Bloating: Failure: 17 (54.8%) N (%)
